Data from patent US10676436B2, “NLRX1 ligands” (Landos Biopharma, Inc., priority 2018, dated 2020).

What was measured:
[1] = test system: CD4+ T cells; assay: Immunological screening in vitro in CD4+ splenocytes, flow cytometry; type: cell-based, C57BL/6 mice; conditions: for proportion of IFNγ producing (IFNγ+) CD4+ T cells / proportion of TNFα producing (TNFα+) CD4+ T cells: wild-type cells, 48 h, PMA and ionomycin; for size and dose dependence of the effect on TNFα producing and IFNγ producing cells: within the range tested
Text: Spleens were excised from C57BL/6 mice. Spleens were crushed between the frosted ends of microscope slides and filtered to provide a cellular suspension. Red blood cells were lysed through hypotonic lysis. Remaining cells were washed and filtered. CD4+ T cells were enriched within the suspension using magnetic sorting based negative selection. Cells were collected and plated within 96 well plates coated with anti-CD3 and cultured in the presence of NX-13, NX-37, NX-43, NX-44, or NX-50 at 0, 0.1, 1 or 10 micromolar; NX-53, NX-54, NX-55, or NX-56 at 0, 0.1, or 1 micromolar; or NX-45 at 10, 50 or 100 nanomolar for 48 h. During the last 6 h of culture, cells were stimulated with phorbol 12-myristate-13-acetate (PMA) and ionomycin.
Cells were collected from 96 well plates and stained with a cocktail of antibodies for immunophenotyping by flow cytometry. Culture supernatant was collected and assayed for cytokine concentrations by cytometric bead array. Data was captured on a BD FACS Celesta and analyzed using FacsDiva.

[2] = molecular target: T1, NLRX1 (C terminus, pdb: 3UN9) (Homo sapiens, UniProt Q86UT6); conditions: low affinity NLRX1 ligand, published value; cited from earlier work
T1 construct: the published structure for the C terminus of NLRX1 (pdb: 3UN9)

[3] = molecular target: T2, mutated NLRX1 protein (D677A, F680A, F681A, E684A) (Homo sapiens, UniProt Q86UT6, D677A/E684A/F680A/F681A); assay: Surface plasmon resonance binding to NLRX1-Mutant
T2 construct: made in house; host or cells: Pichia pastoris (by 'similar methods')
Method: (§1) NLRX1 production and purification. Human NLRX1 (www.uniprot.org; UniProtKB—Q86UT6 (NLRX1 HUMAN)) was cloned into E. coli, amplified and transfected in Pichia pastoris. P. pastoris was plated onto adenine selective media. Stable transfected colonies were selected and grown within YPD broth at 30° C. for 24 hours, 240 RPM shaking. Starter culture was used to inoculate base media (1% yeast extract, 2% peptone, 1% sorbitol, 2% yeast nitrogen base) containing biotin and buffered with potassium phosphate. Inoculated base media was incubated for 48 hours at 30° C., 240 RPM. P. pastoris was then pelleted by centrifugation and resuspended in expression media (1% sorbitol, 2% yeast nitrogen base) containing biotin and buffered with potassium phosphate. Culture was induced daily for protein production through addition of methanol and incubated for a total of 4 days at 28° C., 240 RPM. After incubation, cells were pelleted by centrifugation and lysed by sonication. Recombinant NLRX1 protein was purified by fast protein liquid chromatography (AktaPrime) using immobilized metal affinity chromatography. Fractions of protein were eluted in 1 mL aliquots and evaluated for NLRX1 content. A mutated NLRX1 protein was generated using similar methods to disrupt binding within the predicted binding site through altering four residues to alanine (D677A, F680A, F681A, and E684A).
A Biacore T200 was used to evaluate binding to the NLRX1 protein. NLRX1-WT and NLRX1-Mutant were used as proteins to immobilize onto the CM5 sensor chip. NLRX1-WT was diluted in 10 mM sodium acetate buffer at pH 4.0 and immobilized onto the flow cell to a level of ˜3700 RU, using standard amine coupling chemistry. NLRX1-Mutant was diluted in 10 mM sodium acetate buffer at pH 4.0 and immobilized onto the flow cell to a level of ˜3100 RU, using standard amine coupling chemistry. 20 mM MOPS, 150 mM NaCl, 5 mM sodium acetate, 1 mM EDTA, 0.05% Tween-20, pH 8.0 buffer (Running buffer) was used as the immobilization running buffer. Based on the immobilized response values, theoretical Rmax values were calculated. […]

[4] = molecular target: T3, Human NLRX1 (NLRX1-WT) (Homo sapiens, UniProt Q86UT6); assay: Surface plasmon resonance binding to NLRX1-WT
T3 construct: made in house; host or cells: Pichia pastoris
Method: as §1
A Biacore T200 was used to evaluate binding to the NLRX1 protein. NLRX1-WT and NLRX1-Mutant were used as proteins to immobilize onto the CM5 sensor chip. NLRX1-WT was diluted in 10 mM sodium acetate buffer at pH 4.0 and immobilized onto the flow cell to a level of ˜3700 RU, using standard amine coupling chemistry. NLRX1-Mutant was diluted in 10 mM sodium acetate buffer at pH 4.0 and immobilized onto the flow cell to a level of ˜3100 RU, using standard amine coupling chemistry. 20 mM MOPS, 150 mM NaCl, 5 mM sodium acetate, 1 mM EDTA, 0.05% Tween-20, pH 8.0 buffer (Running buffer) was used as the immobilization running buffer. Based on the immobilized response values, theoretical Rmax values were calculated. The Rmax values assume 1:1 interaction mechanism. Overnight kinetics were performed for all analytes binding to the immobilized proteins. The kinetics experiments were performed in the μL/min. presence of running buffer+1% DMSO. The flow rate of all solutions was maintained at 50 Analyte concentrations were 0 μM, 2.5 μM, 5 μM 10 μM 20 μM and 40 μM.

[5] = test system: APC^min/+ model of colorectal cancer; assay: APCmin/+ model of colorectal cancer; type: in vivo, mice; conditions: 40 mg/kg oral, four weeks
Method: (§2) Adult BALB/c mice were injected with 5×10^6 CT26 carcinoma cells subcutaneously in the hind flank. Mice were treated daily with NX-43 at 40 mg/kg via gavage beginning on day 9. Mice were weighed daily, and tumor diameter was measured every 3 days up to day 21. Tumors were collected at weighed at necropsy. A second mouse model was used. APC^min/+ mice were administered DSS in drinking water beginning at 5 weeks of age. Mice were challenged with DSS for a total of 5 days prior to return of standard drinking water. After DSS, mice were treated with NX-43 (40 mg/kg) by oral gavage for four weeks. After four weeks, colons were excised and washed. Number of polyps were counted, and colon weights were obtained.

[6] = test system: CT26 carcinoma cells; assay: CT26 injected solid tumor model; type: in vivo, BALB/c mice
Method: as §2
Total RNA from tumors and lymph nodes can be generated using the Qiagen RNeasy mini kit. cDNA can be generated using the BioRad iScript cDNA synthesis kit. Standard curves can be generated by serial dilution of purified product from a standard PCR reaction with Taq DNA polymerase followed by purification using the Qiagen MinElute PCR purification kit. Expression levels can be obtained from quantitative real-time PCR with SybrGreen supermix on a BioRad CFX96 Thermal cycler followed by normalization to expression of β-actin. Gene expression can be measured for genes marking immune activation such as inflammatory cytokines or surface receptors, immune suppression such as CTLA-4, PD-1, or ARG-1, and tumor growth and metastasis.
H&E stained tumor and lymph node sections can be prepared from tissue collected into 10% buffered formalin and embedded in paraffin. Slides can be examined by a board-certified veterinary pathologist via an Olympus microscope and images will be collected with Image-Pro software. Samples can be scored and evaluated for presence of tumor infiltrating leukocytes, areas of necrosis and proportion of proliferating tumor cells.
Tumors and lymph nodes can be collected into RPMI/FBS buffer containing collagenase (300 U/mL) and DNase (50 U/mL) for digestion. Tissues can be digested for 60 minutes under stirring at 37° C. […]

[7] = tested at 10, 50 and 100 nanomolar

T2 sequence (Q86UT6 87-975 D677A/F680A/F681A/E684A): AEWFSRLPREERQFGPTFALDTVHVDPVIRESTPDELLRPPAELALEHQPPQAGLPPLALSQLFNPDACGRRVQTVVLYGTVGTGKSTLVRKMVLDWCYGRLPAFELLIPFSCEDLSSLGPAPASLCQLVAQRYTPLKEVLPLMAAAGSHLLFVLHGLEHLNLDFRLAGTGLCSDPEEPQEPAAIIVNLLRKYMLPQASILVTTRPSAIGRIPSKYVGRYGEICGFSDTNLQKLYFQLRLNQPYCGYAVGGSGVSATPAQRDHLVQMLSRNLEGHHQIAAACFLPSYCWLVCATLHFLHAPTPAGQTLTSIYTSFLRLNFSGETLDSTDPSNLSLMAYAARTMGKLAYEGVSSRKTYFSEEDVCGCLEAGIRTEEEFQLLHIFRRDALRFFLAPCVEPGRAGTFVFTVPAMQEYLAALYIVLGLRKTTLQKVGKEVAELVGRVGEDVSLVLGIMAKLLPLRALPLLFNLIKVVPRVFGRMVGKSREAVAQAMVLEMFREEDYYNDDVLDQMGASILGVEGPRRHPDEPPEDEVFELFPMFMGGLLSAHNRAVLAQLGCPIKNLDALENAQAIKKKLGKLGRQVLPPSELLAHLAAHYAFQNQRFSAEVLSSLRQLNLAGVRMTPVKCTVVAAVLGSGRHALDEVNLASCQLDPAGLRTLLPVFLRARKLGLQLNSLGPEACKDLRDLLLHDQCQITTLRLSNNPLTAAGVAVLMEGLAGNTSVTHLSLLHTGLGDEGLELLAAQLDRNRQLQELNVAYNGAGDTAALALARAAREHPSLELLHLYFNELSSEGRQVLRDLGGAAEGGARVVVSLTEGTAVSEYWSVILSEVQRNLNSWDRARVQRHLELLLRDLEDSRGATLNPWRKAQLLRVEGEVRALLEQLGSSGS
T3 sequence (Q86UT6 87-975): as the sequence (Q86UT6 87-975 D677A/F680A/F681A/E684A) above, with A591D, A594F, A595F, A598E counted along it
T1 sequence (Q86UT6 629-975 limits assumed): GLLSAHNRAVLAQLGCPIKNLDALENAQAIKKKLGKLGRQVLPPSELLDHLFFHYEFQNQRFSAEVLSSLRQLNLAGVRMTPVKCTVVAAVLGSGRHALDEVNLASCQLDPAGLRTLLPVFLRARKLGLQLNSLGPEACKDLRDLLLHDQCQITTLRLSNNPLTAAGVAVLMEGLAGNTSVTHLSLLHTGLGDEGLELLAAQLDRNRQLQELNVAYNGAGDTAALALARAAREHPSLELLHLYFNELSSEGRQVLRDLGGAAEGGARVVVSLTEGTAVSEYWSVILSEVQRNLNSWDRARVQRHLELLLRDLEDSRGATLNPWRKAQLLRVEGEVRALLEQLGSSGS

Row | SMILES | proportion of IFNγ producing (IFNγ+) CD4+ T cells [1] | function at NLRX1 concluded from the cytokine results [1] | proportion of TNFα producing (TNFα+) CD4+ T cells [1] | other results
1 | Cc1cccc(Oc2cc(Oc3cccc(C)n3)cc(Oc3ccccc3O)c2)n1 [NX-56, 2,2′-(5-(phen-6-ol)oxy-1,3-phenylene)bis(oxy)bis(6-methylpyridine)] | weakly increased |  |  | 
2 | CCCC\C=C/C=C/C=C\CCCCCCCC(=O)O [punicic acid] |  |  |  | published binding affinity to NLRX1 [2]: -6.2 kcal/mol
3 | Cc1cccc(Oc2cc(Oc3cccc(C)n3)cc(Oc3nc(C)cc(C)n3)c2)n1 [NX-37, 2-(3,5-bis(6-methylpyridin-2-yloxy)phenoxy)-4,6-dimethylpyrimidine] | increased | specific inhibitors of NLRX1 | increased | binding to the mutated NLRX1 protein [3]: Loss of binding; change in IL-10 producing cells [1]: Neither small molecule elicited a change; size and dose dependence of the effect on TNFα producing and IFNγ producing cells [1]: dose-dependent effects; binding to NLRX1 by surface plasmon resonance (in words) [4]: bind to NLRX1
4 | Cc1cccc(Oc2cc(Oc3ccccn3)cc(Oc3cccc(C)n3)c2)n1 [NX-54, 2,2′-(5-(pyridin-2-yloxy)-1,3-phenylene)bis(oxy)bis(6-methylpyridine)] | minimal effects at high concentrations |  |  | 
5 | Cc1cccnc1Oc1cc(Oc2ncccc2C)cc(Oc2ncccc2C)c1 [NX-50, 1,3,5-tris (3-methylpyridin-2-yloxy)benzene] | decreased | activators of NLRX1 | decreased | 
6 | Cc1cc(N)cnc1Oc1cc(Oc2ncc(N)cc2C)cc(Oc2ncc(N)cc2C)c1 [NX-45, 6,6′,6″-(benzene-1,3,5-triyltris(oxy))tris(5-methylpyridin-3-amine)] | reduces | activators of NLRX1 | reduces | concentrations at which the significant reduction in IFNγ+ cells occurs [1, 7]: ≥ 50 nM; concentrations at which the significant reduction in TNFα+ cells occurs [1, 7]: ≥ 10 nM
7 | Cc1cccc(Oc2cc(Oc3cccc(C)n3)cc(Oc3ccccc3C)c2)n1 [NX-55, 2,2′-(5-(6-methylphenoxy)-1,3-phenylene)bis(oxy)bis(6-methylpyridine)] | only a small decrease |  |  | 
8 | Cc1cc(O)cnc1Oc1cc(Oc2ccccc2)cc(Oc2ncc(O)cc2C)c1 [NX-44, 6,6′-(5-phenoxy-1,3-phenylene)bis(oxy)bis(5-methyl-3-pyridinol)] | increased | specific inhibitors of NLRX1 | increased | 
9 | Cc1cccc(Oc2cc(Oc3ccccc3)cc(Oc3cccc(C)n3)c2)n1 [NX-53, 2,2′-(5-phenoxy-1,3-phenylene)bis(oxy)bis(6-methylpyridine)] | weakly increased |  |  | 
10 | Cc1cccnc1Oc1cc(Oc2ccccc2)cc(Oc2ncccc2C)c1 [NX-43, 2,2′-(5-phenoxy-1,3-phenylene)bis(oxy)bis(3-methylpyridine)] | increased | specific inhibitors of NLRX1 | increased | binding to the mutated NLRX1 protein [3]: Loss of binding; overall tumor burden (as evidenced by the colon weight) [5]: reduced; number of colonic polyps ([5]; post-inflammation treatment): reduced; change in IL-10 producing cells [1]: Neither small molecule elicited a change; size and dose dependence of the effect on TNFα producing and IFNγ producing cells [1]: greater effect than NX-37; time after initiation of treatment at which reduction in tumor diameter was observed ([6]; 40 mg/kg daily via gavage): less than 10 days; tumor size relative to untreated controls ([6]; 40 mg/kg daily via gavage beginning on day 9): reduce; reduction of overall tumor mass ([6]; after 12 days of treatment, 40 mg/kg): over 70%; binding to NLRX1 by surface plasmon resonance (in words) [4]: bind to NLRX1
